# Reference: PubChem BioAssay AID1918995 (Molecular Pharmacology Branch, DTP, NCI, 2023)
# “And” between values parts separate entries of the source, which are not always exact repeats. Equal entries are not always repeated.
# Tested on: 324938-238-R-J1-PDC complex spheroid growth, % test/control
# Assay: Anticancer human tumor 324938-238-R-J1-PDC patient-derived bladder carcinoma cell line growth inhibition [AhR]
# Details: for IC50: curve of first compound; for viability, T/C: stronger effect = lower value
# Procedure, shortened: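 Agents were dosed in half-log steps down from roughly clinical Cmax, or from 10 microM where Cmax was unknown, alone and with AhR antagonists. Read-out: percent test/control growth of tumor spheroids containing HUVEC and MSC stromal cells.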
# [1] = second compound 0.1 µM, first compound 0.0316 µM
# [2] = second compound 0.1 µM, first compound 0.1 µM
# [3] = second compound 0.1 µM, first compound 0.316 µM
# [4] = second compound 0.1 µM, first compound 1 µM
# [5] = second compound 0.1 µM, first compound 3.16 µM
# [6] = second compound 0.1 µM, first compound 10 µM
# [7] = second compound 0.316 µM, first compound 0.0316 µM
# [8] = second compound 0.316 µM, first compound 0.1 µM
# [9] = second compound 0.316 µM, first compound 0.316 µM
# [10] = second compound 0.316 µM, first compound 1 µM
# [11] = second compound 0.316 µM, first compound 3.16 µM
# [12] = second compound 0.316 µM, first compound 10 µM
# [13] = second compound 1 µM, first compound 0.0316 µM
# [14] = second compound 1 µM, first compound 0.1 µM
# [15] = second compound 1 µM, first compound 0.316 µM
# [16] = second compound 1 µM, first compound 1 µM
# [17] = second compound 1 µM, first compound 3.16 µM
# [18] = second compound 1 µM, first compound 10 µM
# [19] = second compound 3.16 µM, first compound 0.0316 µM
# [20] = second compound 3.16 µM, first compound 0.1 µM
# [21] = second compound 3.16 µM, first compound 0.316 µM
# [22] = second compound 3.16 µM, first compound 1 µM
# [23] = second compound 3.16 µM, first compound 3.16 µM
# [24] = second compound 3.16 µM, first compound 10 µM
# [25] = second compound 10 µM, first compound 0.0316 µM
# [26] = second compound 10 µM, first compound 0.1 µM
# [27] = second compound 10 µM, first compound 0.316 µM
# [28] = second compound 10 µM, first compound 1 µM
# [29] = second compound 10 µM, first compound 3.16 µM
# [30] = second compound 10 µM, first compound 10 µM
# 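Also: spheroids exposed to agents for seven days before viability read.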
IC50 (second compound 0.1 µM) [µM],IC50 (second compound 0.316 µM) [µM],IC50 (second compound 1 µM) [µM],IC50 (second compound 3.16 µM) [µM],IC50 (second compound 10 µM) [µM],Compound,"viability, T/C [1] [%]","viability, T/C [2] [%]","viability, T/C [3] [%]","viability, T/C [4] [%]","viability, T/C [7] [%]","viability, T/C [8] [%]","viability, T/C [9] [%]","viability, T/C [10] [%]","viability, T/C [13] [%]","viability, T/C [14] [%]","viability, T/C [15] [%]","viability, T/C [16] [%]","viability, T/C [19] [%]","viability, T/C [20] [%]","viability, T/C [21] [%]",further results
> 10,> 10,> 10,> 10,< 0.0316,COc1cc(C2c3cc4c(cc3C(OC3OC5COC(C)OC5C(O)C3O)C3COC(=O)C23)OCO4)cc(OC)c1O (stereo unspecified) + Cc1cncc(-c2nc(NCCc3c[nH]c4ccccc34)c3ncn(C(C)C)c3n2)c1,104,113,96.8,126,109,128,109,87.2,126,102,84.9,107,86,95.2,94.2,"viability, T/C [5]: 106%; viability, T/C [6]: 123%; viability, T/C [11]: 95.1%; viability, T/C [12]: 87.8%; viability, T/C [17]: 103%; viability, T/C [18]: 106%; viability, T/C [22]: 81.8%; viability, T/C [23]: 106%; viability, T/C [24]: 81.6%; viability, T/C [25]: 3.73%; viability, T/C [26]: 10.1%; viability, T/C [27]: 6.66%; viability, T/C [28]: 4%; viability, T/C [29]: 6.93%; viability, T/C [30]: 15%"
–,–,–,–,–,COc1cccc2c1C(=O)c1c(O)c3c(c(O)c1C2=O)CC(O)(C(=O)CO)CC3OC1CC(N)C(O)C(C)O1 (stereo unspecified),–,–,–,–,–,–,–,–,–,–,–,–,–,–,–,"viability, T/C (compound 0.0316 µM): 69.2% and 39.5% and 37.4%; viability, T/C (compound 0.1 µM): 86% and 31.1% and 26.5%; viability, T/C (compound 0.316 µM): 53.9% and 16.3% and 19.6%; viability, T/C (compound 1 µM): 2.48% and 4.61% and 4.55%; viability, T/C (compound 3.16 µM): 1.18% and 0.26% and 0.23%; viability, T/C (compound 10 µM): 0.6% and 0.23% and 0.35%"
> 10,> 10,> 10,> 10,< 0.0316,CC1(C)CCC(CN2CCN(c3ccc(C(=O)NS(=O)(=O)c4ccc(NCC5CCOCC5)c([N+](=O)[O-])c4)c(Oc4cnc5[nH]ccc5c4)c3)CC2)=C(c2ccc(Cl)cc2)C1 + Cc1cncc(-c2nc(NCCc3c[nH]c4ccccc34)c3ncn(C(C)C)c3n2)c1,108,80.3,109,93,94.2,96.9,136,87.7,112,123,131,107,106,93.5,115,"viability, T/C [5]: 109%; viability, T/C [6]: 117%; viability, T/C [11]: 86.6%; viability, T/C [12]: 114%; viability, T/C [17]: 103%; viability, T/C [18]: 130%; viability, T/C [22]: 102%; viability, T/C [23]: 112%; viability, T/C [24]: 106%; viability, T/C [25]: 13.5%; viability, T/C [26]: 8.66%; viability, T/C [27]: 11.9%; viability, T/C [28]: 7.88%; viability, T/C [29]: 9.07%; viability, T/C [30]: 12.5%"
> 1,> 1,> 1,> 1,< 0.00316,CC1COCCN1c1cc(-c2ccnn2C)c2ccnc(-c3ccn[nH]3)c2n1 (stereo unspecified) + Cc1cncc(-c2nc(NCCc3c[nH]c4ccccc34)c3ncn(C(C)C)c3n2)c1,112,89.6,81.2,54.9,114,81.3,81.6,70.2,137,88,72.2,53.3,77.6,70.6,67.8,"viability, T/C (second compound 0.1 µM, first compound 0.00316 µM): 87.9%; viability, T/C (second compound 0.1 µM, first compound 0.01 µM): 123%; viability, T/C (second compound 0.316 µM, first compound 0.00316 µM): 121%; viability, T/C (second compound 0.316 µM, first compound 0.01 µM): 150%; viability, T/C (second compound 1 µM, first compound 0.00316 µM): 114%; viability, T/C (second compound 1 µM, first compound 0.01 µM): 122%; viability, T/C (second compound 3.16 µM, first compound 0.00316 µM): 67.2%; viability, T/C (second compound 3.16 µM, first compound 0.01 µM): 60.2%; viability, T/C [22]: 72.2%; viability, T/C (second compound 10 µM, first compound 0.00316 µM): 4.75%; viability, T/C (second compound 10 µM, first compound 0.01 µM): 5.66%; viability, T/C [25]: 2.57%; viability, T/C [26]: 2.16%; viability, T/C [27]: 2.35%; viability, T/C [28]: 5.11%"
